Assays:
[1] = target: Dual specificity protein kinase CLK4 (Homo sapiens) (UniProt Q9HAZ1); experiment: CLK4 Invitrogen Lab (UK) kinase screen (BI); settings: Compound concentration 1.0 uM
[2] = target: Tyrosine-protein kinase Fes/Fps (Homo sapiens) (UniProt P07332); settings: Compound concentration 1.0 uM
[3] = target: Cyclin-dependent kinase 5/CDK5 activator 1 (Homo sapiens) (UniProt Q00535+Q15078); settings: Compound concentration 1.0 uM
[4] = target: Insulin receptor-related protein (Homo sapiens) (UniProt P14616); settings: Compound concentration 1.0 uM
[5] = target: Ankyrin repeat and protein kinase domain-containing protein 1 (Homo sapiens) (UniProt Q8NFD2); settings: Compound concentration 1.0 uM
[6] = target: Serine/threonine-protein kinase 26 (Homo sapiens) (UniProt Q9P289); settings: Compound concentration 1.0 uM
Chain of Serine/threonine-protein kinase 26 (Homo sapiens) (Q9P289 2-416 limits assumed): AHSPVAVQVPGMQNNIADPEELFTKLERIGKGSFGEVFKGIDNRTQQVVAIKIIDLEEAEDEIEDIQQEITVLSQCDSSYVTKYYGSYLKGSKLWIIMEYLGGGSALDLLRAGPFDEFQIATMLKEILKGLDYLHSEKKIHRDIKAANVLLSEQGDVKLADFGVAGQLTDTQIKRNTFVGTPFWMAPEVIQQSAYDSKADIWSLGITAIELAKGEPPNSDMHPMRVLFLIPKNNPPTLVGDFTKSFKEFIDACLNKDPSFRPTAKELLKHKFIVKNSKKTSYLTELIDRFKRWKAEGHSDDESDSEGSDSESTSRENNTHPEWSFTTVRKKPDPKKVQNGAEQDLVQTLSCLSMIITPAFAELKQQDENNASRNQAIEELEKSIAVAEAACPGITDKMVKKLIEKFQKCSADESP

[7] = target: GABA-A receptor; anion channel (Rattus norvegicus) (UniProt O09028+P15431+P18506+P18508+P19969+P20236+P23574+P23576+P28471+P28473+P30191+P62813+P63079+P63138+Q91ZM7+Q9ES14); settings: Compound concentration 10.0 uM
[8] = target: Non-receptor tyrosine-protein kinase TNK1 (Homo sapiens) (UniProt Q13470); settings: Compound concentration 1.0 uM
[9] = target: Tyrosine-protein kinase Lyn (Homo sapiens) (UniProt P07948); experiment: LYN B Invitrogen Lab (UK) kinase screen (BI); settings: Compound concentration 1.0 uM
Chain of Tyrosine-protein kinase Lyn (Homo sapiens) (P07948 2-512 limits assumed): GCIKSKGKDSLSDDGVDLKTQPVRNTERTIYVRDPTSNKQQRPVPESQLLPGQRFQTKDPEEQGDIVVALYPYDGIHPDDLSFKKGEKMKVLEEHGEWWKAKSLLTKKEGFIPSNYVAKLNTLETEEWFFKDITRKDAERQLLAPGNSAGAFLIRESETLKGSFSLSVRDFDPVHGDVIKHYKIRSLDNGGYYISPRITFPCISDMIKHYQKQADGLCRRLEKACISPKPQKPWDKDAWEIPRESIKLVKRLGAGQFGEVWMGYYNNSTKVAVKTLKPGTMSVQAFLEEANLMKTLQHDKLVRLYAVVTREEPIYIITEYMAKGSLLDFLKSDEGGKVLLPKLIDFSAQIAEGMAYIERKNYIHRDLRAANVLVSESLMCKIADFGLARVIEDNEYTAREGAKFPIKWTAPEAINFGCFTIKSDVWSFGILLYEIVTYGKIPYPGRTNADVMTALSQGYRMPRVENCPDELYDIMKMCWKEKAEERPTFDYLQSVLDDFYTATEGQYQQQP

[10] = target: Inactive tyrosine-protein kinase PEAK1 (Homo sapiens) (UniProt Q9H792); settings: Compound concentration 1.0 uM
[11] = target: Serine/threonine-protein kinase LATS2 (Homo sapiens) (UniProt Q9NRM7); experiment: LATS2 Invitrogen Lab (UK) kinase screen (BI); settings: Compound concentration 1.0 uM
[12] = target: Rho-associated protein kinase 2 (Homo sapiens) (UniProt O75116); settings: Compound concentration 1.0 uM
[13] = target: ATP-sensitive inward rectifier potassium channel 1 isoform X1 (Mesocricetus auratus) (UniProt A0A1U8CU73); experiment: K+/KATP/HA Eurofins SafetyScreen44 (BI); settings: Cricetinae; Compound concentration 10.0 uM
[14] = target: Mitogen-activated protein kinase kinase kinase 5 (Homo sapiens) (UniProt Q99683); settings: Compound concentration 1.0 uM
[15] = target: Epithelial discoidin domain-containing receptor 1 (Homo sapiens) (UniProt Q08345); experiment: DDR1 Invitrogen Lab (UK) kinase screen (BI); settings: Compound concentration 1.0 uM
[16] = target: cGMP-dependent protein kinase 2 (Homo sapiens) (UniProt Q13237); settings: Compound concentration 1.0 uM
[17] = target: Protein kinase C gamma type (Homo sapiens) (UniProt P05129); experiment: PRKCG Invitrogen Lab (UK) kinase screen (BI); settings: Compound concentration 1.0 uM
[18] = target: Serine/threonine-protein kinase N2 (Homo sapiens) (UniProt Q16513); experiment: PRK2 DUNDEE kinase screen (BI); settings: Compound concentration 10.0 uM
[19] = target: Kinase suppressor of Ras 2 (Homo sapiens) (UniProt Q6VAB6); settings: Compound concentration 1.0 uM
Chain of Kinase suppressor of Ras 2 (Homo sapiens) (Q6VAB6 whole entry): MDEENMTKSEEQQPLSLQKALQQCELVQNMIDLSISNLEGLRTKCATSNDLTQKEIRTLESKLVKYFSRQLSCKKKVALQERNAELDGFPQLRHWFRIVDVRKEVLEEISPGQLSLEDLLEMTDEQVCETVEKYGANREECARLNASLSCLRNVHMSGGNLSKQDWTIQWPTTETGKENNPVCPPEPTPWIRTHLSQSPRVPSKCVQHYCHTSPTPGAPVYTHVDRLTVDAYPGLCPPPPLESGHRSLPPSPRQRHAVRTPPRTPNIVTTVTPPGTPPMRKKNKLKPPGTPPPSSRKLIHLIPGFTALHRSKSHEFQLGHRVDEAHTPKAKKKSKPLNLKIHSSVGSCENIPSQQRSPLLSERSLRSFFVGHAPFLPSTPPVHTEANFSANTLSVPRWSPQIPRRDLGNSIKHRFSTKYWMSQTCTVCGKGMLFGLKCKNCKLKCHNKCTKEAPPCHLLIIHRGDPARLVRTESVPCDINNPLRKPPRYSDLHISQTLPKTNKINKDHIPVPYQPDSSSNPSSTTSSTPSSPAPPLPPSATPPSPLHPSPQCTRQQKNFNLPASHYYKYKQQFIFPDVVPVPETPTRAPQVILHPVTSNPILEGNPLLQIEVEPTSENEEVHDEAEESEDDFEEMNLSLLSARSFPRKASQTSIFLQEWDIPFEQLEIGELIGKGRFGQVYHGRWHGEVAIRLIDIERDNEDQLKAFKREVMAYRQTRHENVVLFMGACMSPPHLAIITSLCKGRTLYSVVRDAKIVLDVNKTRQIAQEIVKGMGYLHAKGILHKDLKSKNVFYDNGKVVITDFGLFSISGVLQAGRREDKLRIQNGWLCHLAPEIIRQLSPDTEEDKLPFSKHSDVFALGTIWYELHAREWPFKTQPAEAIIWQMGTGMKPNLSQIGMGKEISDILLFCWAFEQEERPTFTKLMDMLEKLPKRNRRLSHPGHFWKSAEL

[20] = target: Proto-oncogene tyrosine-protein kinase Src (Homo sapiens) (UniProt P12931); experiment: SRC DUNDEE kinase screen (BI); settings: Gallus gallus; Compound concentration 10.0 uM
[21] = target: Tyrosine-protein kinase JAK1 (Homo sapiens) (UniProt P23458); settings: Compound concentration 1.0 uM
[22] = target: Tyrosine-protein kinase Fyn (Homo sapiens) (UniProt P06241); settings: Compound concentration 1.0 uM
Chain of Tyrosine-protein kinase Fyn (Homo sapiens) (P06241 2-537 limits assumed): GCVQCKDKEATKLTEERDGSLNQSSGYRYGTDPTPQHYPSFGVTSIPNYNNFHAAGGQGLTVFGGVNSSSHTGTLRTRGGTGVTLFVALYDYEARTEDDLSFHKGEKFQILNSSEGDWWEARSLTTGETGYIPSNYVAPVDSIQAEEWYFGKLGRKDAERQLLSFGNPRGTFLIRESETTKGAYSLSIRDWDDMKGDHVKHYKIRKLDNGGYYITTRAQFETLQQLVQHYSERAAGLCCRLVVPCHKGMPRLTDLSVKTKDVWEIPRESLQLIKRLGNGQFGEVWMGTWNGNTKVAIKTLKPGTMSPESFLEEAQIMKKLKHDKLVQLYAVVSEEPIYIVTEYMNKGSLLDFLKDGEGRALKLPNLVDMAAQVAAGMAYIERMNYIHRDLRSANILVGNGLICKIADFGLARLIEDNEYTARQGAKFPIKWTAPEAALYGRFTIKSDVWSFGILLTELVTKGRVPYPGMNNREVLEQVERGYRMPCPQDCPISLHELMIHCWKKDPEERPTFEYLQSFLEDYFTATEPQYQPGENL

[23] = target: Beta-2 adrenergic receptor (Homo sapiens) (UniProt P07550); settings: Compound concentration 10.0 uM
[24] = target: Leukotriene C4 synthase (Cavia porcellus) (UniProt A6XA80); settings: Compound concentration 10.0 uM
[25] = target: Mitogen-activated protein kinase kinase kinase 2 (Homo sapiens) (UniProt Q9Y2U5); settings: Compound concentration 1.0 uM
[26] = target: Leukotriene A-4 hydrolase (Cavia porcellus) (UniProt P19602); settings: Compound concentration 10.0 uM
[27] = target: Sodium/potassium-transporting ATPase (Sus scrofa) (UniProt P05027+P05024+D2WKD8+D2WKD7+F1ST41); settings: Compound concentration 10.0 uM
[28] = target: PI3K p110 beta/p85 alpha (Homo sapiens) (UniProt P27986+P42338); experiment: PIK3CBPIK3RI Invitrogen Lab (UK) kinase screen (BI); assay type: protein-complex assay; settings: Compound concentration 1.0 uM
[29] = target: Vascular endothelial growth factor receptor 3 (Homo sapiens) (UniProt P35916); settings: Compound concentration 1.0 uM
[30] = target: Protein kinase C alpha type (Homo sapiens) (UniProt P17252); experiment: PKCA DUNDEE kinase screen (BI); settings: Compound concentration 10.0 uM
[31] = target: Voltage-dependent L-type calcium channel subunit alpha-1C (CA+/DILSI/RA) (Rattus norvegicus, UniProt P22002); experiment: CA+/DILSI/RA Eurofins SafetyScreen44 (BI); settings: read-out: % Ctrl
Chain of Voltage-dependent L-type calcium channel subunit alpha-1C (CA+/DILSI/RA) (P22002 whole entry): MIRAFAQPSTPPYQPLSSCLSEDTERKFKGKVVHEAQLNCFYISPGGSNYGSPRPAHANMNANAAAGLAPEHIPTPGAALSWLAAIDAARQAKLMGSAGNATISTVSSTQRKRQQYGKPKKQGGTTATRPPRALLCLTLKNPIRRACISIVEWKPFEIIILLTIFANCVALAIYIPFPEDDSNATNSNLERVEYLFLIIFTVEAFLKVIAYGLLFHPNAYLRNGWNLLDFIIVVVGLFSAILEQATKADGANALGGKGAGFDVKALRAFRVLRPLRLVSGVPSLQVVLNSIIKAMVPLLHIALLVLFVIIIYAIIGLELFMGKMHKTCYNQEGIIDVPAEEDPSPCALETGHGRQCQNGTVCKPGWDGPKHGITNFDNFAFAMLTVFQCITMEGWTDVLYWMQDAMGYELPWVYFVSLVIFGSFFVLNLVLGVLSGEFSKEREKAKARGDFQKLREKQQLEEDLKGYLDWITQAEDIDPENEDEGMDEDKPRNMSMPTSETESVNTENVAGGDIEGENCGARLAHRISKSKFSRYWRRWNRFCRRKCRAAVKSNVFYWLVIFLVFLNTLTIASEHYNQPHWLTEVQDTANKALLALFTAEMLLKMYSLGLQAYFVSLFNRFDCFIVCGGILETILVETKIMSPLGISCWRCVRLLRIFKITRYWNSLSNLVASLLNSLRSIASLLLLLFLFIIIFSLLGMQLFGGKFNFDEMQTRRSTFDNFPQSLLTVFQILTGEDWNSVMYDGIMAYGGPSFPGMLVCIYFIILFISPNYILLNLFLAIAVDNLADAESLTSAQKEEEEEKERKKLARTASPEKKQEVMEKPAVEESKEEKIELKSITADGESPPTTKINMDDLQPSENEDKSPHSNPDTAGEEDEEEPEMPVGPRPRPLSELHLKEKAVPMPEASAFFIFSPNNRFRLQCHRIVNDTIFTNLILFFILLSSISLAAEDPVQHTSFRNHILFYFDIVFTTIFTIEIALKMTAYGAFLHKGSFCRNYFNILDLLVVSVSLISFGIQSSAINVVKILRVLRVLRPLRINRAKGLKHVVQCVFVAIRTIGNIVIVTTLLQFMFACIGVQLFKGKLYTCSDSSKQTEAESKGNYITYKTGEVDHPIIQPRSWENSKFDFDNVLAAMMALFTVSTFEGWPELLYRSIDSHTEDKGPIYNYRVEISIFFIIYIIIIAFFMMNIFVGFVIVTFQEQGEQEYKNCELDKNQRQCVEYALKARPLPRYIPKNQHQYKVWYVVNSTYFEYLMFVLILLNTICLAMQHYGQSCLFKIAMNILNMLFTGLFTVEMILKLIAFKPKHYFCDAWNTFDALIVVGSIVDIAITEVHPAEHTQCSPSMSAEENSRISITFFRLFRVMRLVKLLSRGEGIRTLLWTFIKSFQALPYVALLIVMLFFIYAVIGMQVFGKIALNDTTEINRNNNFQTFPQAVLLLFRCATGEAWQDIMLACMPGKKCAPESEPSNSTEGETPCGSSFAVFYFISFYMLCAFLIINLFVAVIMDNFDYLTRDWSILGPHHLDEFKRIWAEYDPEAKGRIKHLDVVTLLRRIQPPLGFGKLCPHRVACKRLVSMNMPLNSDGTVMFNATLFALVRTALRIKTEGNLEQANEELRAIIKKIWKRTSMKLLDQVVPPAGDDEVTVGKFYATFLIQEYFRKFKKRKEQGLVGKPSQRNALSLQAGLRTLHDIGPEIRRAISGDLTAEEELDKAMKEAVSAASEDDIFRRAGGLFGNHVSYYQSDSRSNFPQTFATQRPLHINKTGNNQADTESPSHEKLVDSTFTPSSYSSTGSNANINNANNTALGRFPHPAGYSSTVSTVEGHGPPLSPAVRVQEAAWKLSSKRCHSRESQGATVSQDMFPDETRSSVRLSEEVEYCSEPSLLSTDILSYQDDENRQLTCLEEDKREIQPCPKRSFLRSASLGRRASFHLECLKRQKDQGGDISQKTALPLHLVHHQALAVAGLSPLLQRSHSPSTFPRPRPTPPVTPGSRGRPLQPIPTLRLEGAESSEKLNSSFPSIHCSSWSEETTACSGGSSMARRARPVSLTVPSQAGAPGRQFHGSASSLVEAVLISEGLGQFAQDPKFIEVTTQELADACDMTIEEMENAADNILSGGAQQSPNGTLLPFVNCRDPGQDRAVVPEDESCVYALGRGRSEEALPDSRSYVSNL

[32] = target: 5-hydroxytryptamine receptor 2C (Homo sapiens) (UniProt P28335); settings: Compound concentration 10.0 uM
[33] = target: D(1B) dopamine receptor (Homo sapiens) (UniProt P21918); settings: Compound concentration 10.0 uM
[34] = target: Protein kinase C zeta type (Homo sapiens) (UniProt Q05513); experiment: PRKCZ Invitrogen Lab (UK) kinase screen (BI); settings: Compound concentration 1.0 uM
[35] = target: Tyrosine-protein kinase Fyn (Homo sapiens) (UniProt P06241); settings: Compound concentration 1.0 uM; remark: listed apart in the source
[36] = target: Alpha-2B adrenergic receptor (Homo sapiens) (UniProt P18089); settings: Compound concentration 10.0 uM
[37] = target: Glycogen synthase kinase-3 beta (Homo sapiens) (UniProt P49841); experiment: GSK3B DUNDEE kinase screen (BI); settings: Compound concentration 10.0 uM
[38] = target: RAF proto-oncogene serine/threonine-protein kinase (Homo sapiens) (UniProt P04049); experiment: RAF1 Invitrogen Lab (UK) kinase screen (BI); settings: Compound concentration 1.0 uM
[39] = target: Muscarinic acetylcholine receptor (Rattus norvegicus) (UniProt P08482+P08483+P08485+P08911+P10980); settings: Compound concentration 10.0 uM
[40] = target: Tyrosine-protein kinase CSK (Homo sapiens) (UniProt P41240)
Chain of Tyrosine-protein kinase CSK (Homo sapiens) (P41240 2-450 limits assumed): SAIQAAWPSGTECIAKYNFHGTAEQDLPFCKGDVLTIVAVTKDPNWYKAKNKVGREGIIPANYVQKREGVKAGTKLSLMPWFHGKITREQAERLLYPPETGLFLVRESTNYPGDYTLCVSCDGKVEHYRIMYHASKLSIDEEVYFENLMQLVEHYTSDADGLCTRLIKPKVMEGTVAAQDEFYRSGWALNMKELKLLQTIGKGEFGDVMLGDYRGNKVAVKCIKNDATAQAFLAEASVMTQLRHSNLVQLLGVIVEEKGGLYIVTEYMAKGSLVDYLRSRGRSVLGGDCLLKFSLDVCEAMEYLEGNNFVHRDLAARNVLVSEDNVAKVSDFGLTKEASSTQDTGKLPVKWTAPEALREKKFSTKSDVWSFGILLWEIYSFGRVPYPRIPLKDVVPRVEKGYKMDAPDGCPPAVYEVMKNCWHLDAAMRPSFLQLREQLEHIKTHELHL

[41] = target: Myosin light chain kinase, smooth muscle (Homo sapiens) (UniProt Q15746); settings: Compound concentration 1.0 uM

## CCC(F)(F)c1cc(N2CCC(S(C)(=O)=O)CC2)nc2sc(C(N)=O)c(N)c12 [BI-605906]
[1]
  residual activity: 69%
[2]
  residual activity: 91%
[3]
  residual activity: 97%
[4]
  residual activity: 92%
[5]
  residual activity: 95%
[6]
  residual activity: 109%
[7]
  inhibition: 32.6%
[8]
  residual activity: 92%
[9]
  residual activity: 78%
[10]
  residual activity: 94%
[11]
  residual activity: 88%
[12]
  residual activity: 96%
[13]
  residual activity: 110%
[14]
  residual activity: 99%
[15]
  residual activity: 84%
[16]
  residual activity: 108%
[17]
  residual activity: 102%
[18]
  residual activity: 46.4%
[19]
  residual activity: 92%
[20]
  residual activity: 73.8%
[21]
  residual activity: 98%
[22]
  residual activity: 97%
[23]
  inhibition: 8.96%
[24]
  residual activity: 93%
[25]
  residual activity: 92%
[26]
  residual activity: 93%
[27]
  residual activity: 105%
[28]
  residual activity: 124%
[29]
  residual activity: 97%
[30]
  residual activity: 66.9%
[31]; compound concentration 1 uM
  activity at 1 µM: 99% (not active)
[31]; compound concentration 3 uM
  activity at 3 µM: 111% (not active)
[31]; compound concentration 10 uM
  activity at 10 µM: 101% (not active)
[31]; compound concentration 30 uM
  activity at 30 µM: 87% (not active)
[31]; compound concentration 100 uM
  activity at 100 µM: 45%
[32]
  inhibition: -5.41%
[33]
  inhibition: 2.13%
[34]
  residual activity: 112%
[35]
  residual activity: 89%
[36]
  inhibition: 9.66%
[37]
  residual activity: 74.4%
[38]
  residual activity: 78%
[39]
  residual activity: 99%
[40]; Compound concentration 1.0 uM
  residual activity: 96%
[40]; Compound concentration 10.0 uM
  residual activity: 84%
[41]
  residual activity: 91%
